US20240239775A1, “FXR REGULATOR, PREPARATION METHOD THEREFOR, PHARMACEUTICAL COMPOSITION THEREOF AND USE THEREOF” (QINGDAO RUIJI MEDICAL TECHNOLOGY CO., LTD., priority 2021, published 2024)

Legend:
HepG2 cells = assay: Testing of TC/TG in HepG2 cells incubated with FFA (oleic acid and palmitate); type: cell-based, human; settings: 20 μM compound, 0.5 mmol/L FFA, 24 h; for reduction of the increase in TG level of HepG2 cell induced by oleic acid and palmitate: FIG. 1A; for reduction of the increase in TC level of HepG2 cell induced by oleic acid and palmitate: FIG. 1B
Procedure: Cell TC/TG was tested using Nanjing Jiancheng TG test kit and TC test kit. HepG2 cells were incubated with 0.5 mmol/L FFA (oleic acid and palmitate mixed at a ratio of 2:1) and a solvent or different concentrations (20 μM, 40 μM, 80 μM) of compounds for 24 h. The culture medium was discarded and the cells were washed once with 0.01 M PBS (pH 7.4). The cells were scraped off with a cell scraper. 2-5 mL of 0.01 M PBS (pH 7.4) was then added. The cell suspension was collected and then centrifuged at 1000×g, 4° C. for 10 min. According to the ratio of 10^6 cells/300-500 μL of homogenization medium, isopropyl alcohol was added for mechanical homogenization, such that the cells were thoroughly disrupted until there was no obvious cell precipitation. The cell solution was centrifuged at 10000×g, 4° C. for 10 min. The supernatant was taken and placed on ice for testing. 2.5 μL of distilled water, standard products or samples were well mixed with […] respectively. After incubation at 37° C. for 10 min, the absorbance value of each well was tested with a microplate reader at 510 nm. Calculation formula for TC/TG concentration: sample concentration (mmol/g protein)=(ODsample−ODblank)/(ODstandard−ODblank)×standard product concentration (mmol/L)/protein concentration (g protein/L).
Preparation of protein standard: a. 1.2 mL of standard protein solution was added to a tube of protein standard (30 mg BSA), and a 25 mg/mL standard protein solution was obtained after the protein standard was thoroughly dissolved. b. An appropriate amount of 25 mg/mL protein standard was diluted to the final concentration of 0.5 mg/mL. Preparation of BCA working solution: according to the number of samples, reagent A for the BCA working solution and reagent B for BCA working solution (v/v: 50:1) were well mixed to prepare an appropriate amount of BCA working solution. Determination of protein concentration: a. 0, 1, 2, 4, 8, 12, 16, and 20 μL of the protein standard were respectively added into the standard wells of the 96-well plate, and the diluted standard solution was then added to make up to 20 μL, which is equivalent to obtaining standard concentrations of 0, 0.025, 0.05, 0.1, 0.2, 0.3, 0.4, and 0.5 mg/mL, respectively. b. An appropriate volume of sample was added to the sample wells of the 96-well plate. If the sample is less than 20 μL, the diluted standard solution should be added to make up to 20 μL. c. […] was added to each well and the well plate was set still at 37° C. for 20-30 min. d. The absorbance at A562 nm was determined with a microplate reader. e. The protein concentrations of the samples were calculated according to the standard curves and the sample volumes used.

[1] = Cell proliferation inhibition (cytotoxicity) by MTT assay, HepG2; type: cell-based; settings: human, HepG2 cells, 48 hours after administration, average of three independent repeated experiments
Procedure: The human liver cancer cell line HepG2 was subcultured in a DMEM medium containing penicillin (final concentration: 100 U/mL), streptomycin (final concentration: 100 μg/mL) and 10% FBS under the same conditions as those in the subculture of HEK293A.
(§1) The cell proliferation inhibition ability of compounds was tested by MTT assay. HepG2 and HEK293 cells were inoculated in a 96-well plate at a density of 30%. After incubation for 18 h to allow the cells to adhere, the original culture medium was removed, a given concentration of the compound to be tested was added to each well, and an equal amount of DMSO was added to the control group. Three replicate wells were set up for each compound. 48 hours after administration, cell viability was tested by MTT assay. The blank group was the wells where no cells were added, and then its OD value was read at 490 nm with a microplate reader. Calculation formula for cell viability: cell viability (%)=(ODto be tested−ODblank)/(ODcontrol−ODblank)×100.

FXR = target: T1, FXR (Homo sapiens, UniProt Q96RI1); assay: FXR antagonist screening by TR-FRET (LanthaScreen TR-FRET FXR co-activation assay kit); type: biochemical; settings: Table 1.1, FXR antagonistic activity; TR-FRET with CDCA; geometric means of at least two independent runs
T1 construct: 5 μL of 20 nM FXR-LBD Complete Coregulator buffer G; purchased ThermoFisher PV4833
T1 sequence (Q96RI1 262-486 limits assumed): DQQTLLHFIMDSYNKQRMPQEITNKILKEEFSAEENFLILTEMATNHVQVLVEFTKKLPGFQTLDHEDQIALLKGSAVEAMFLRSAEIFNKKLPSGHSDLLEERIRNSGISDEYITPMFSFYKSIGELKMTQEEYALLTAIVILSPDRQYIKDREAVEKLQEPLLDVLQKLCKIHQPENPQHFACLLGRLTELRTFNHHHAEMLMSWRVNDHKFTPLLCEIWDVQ
Procedure, shortened: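 FXR-LBD (20 nM working solution) mixed with compound, CDCA (200 μM working solution) as agonist, Fluorescein-SRC2-2 and Tb-anti-GST antibody in Coregulator buffer G; 10 h at room temperature. Coactivator recruitment read by TR-FRET, triplicate wells.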

[2] = Cell proliferation inhibition (cytotoxicity) by MTT assay, HEK293A; type: cell-based; settings: human, HEK293A cells, 48 hours after administration, average of three independent repeated experiments
Procedure: The human embryonic kidney cell line HEK293A was subcultured in a medium containing penicillin (final concentration: 100 U/mL), streptomycin (final concentration: 100 μg/mL) and 10% FBS, in a humidified atmosphere of 95% air and 5% carbon dioxide at a constant temperature of 37° C. When the cells were 90% confluent, the old culture medium was discarded and the cells were washed twice with 2 mL of PBS. After the PBS was discarded, 2 mL of 0.25% trypsin-0.25% EDTA mixed digestion solution was added. When it was observed under a microscope that the cells became round, 2 mL of complete culture medium was added quickly to stop the digestion. The cell solution was pipetted gently to collect cells. The cells were centrifuged at 800 rpm, 4° C. for 5 min, the supernatant was discarded, the cells were resuspended in complete culture medium and cultured in bottles, and the medium was changed every other day.
as §1

SMILES | reduction of the increase in TG level of HepG2 cell induced by oleic acid and palmitate (HepG2 cells) | reduction of the increase in TC level of HepG2 cell induced by oleic acid and palmitate (HepG2 cells) | CC50 at 48 h [1] [µM] | IC50 (FXR) [µM] | melting point | CC50 at 48 h [2] [µM]
CC(=O)C1=CC[C@H]2[C@@H]3CC=C4C[C@@H](O)CC[C@]4(C)[C@H]3CC[C@]12C [Centatin, 1-((3S, 8R, 9S, 10R, 135, 14S)-3-hydroxy-10,13-dimethyl-2,3,4,7,8,9,10,11,12,13,14,15-dodecahydro-1H-cyclopenta[a]phenanthren-17-yl)ethan-1-one] | significantly reduce | significantly reduce | – | – | – | –
Cc1c(C(=O)O)oc2ccc(S(=O)(=O)N(CCc3ccccc3)c3ccc(Cc4ccccc4)cc3)cc12 [Example F27-S11, 3-methyl-5-(N-(4-benzylphenyl)-N-phenethylsulfamoyl)benzofuran-2-carboxylic acid] | – | – | > 160 | 0.1 to 10 | 301 to 302 °C | > 160
Cc1c(C(=O)O)oc2ccc(S(=O)(=O)N(CCc3ccccc3)c3ccc(Oc4ccccc4)cc3)cc12 [Example F27-S12, 3-methyl-5-(N-(4-phenoxyphenyl)-N-phenethylsulfamoyl)benzofuran-2-carboxylic acid] | – | – | > 160 | 0.1 to 10 | – | > 160
CC(=O)N1CCN(c2ccccc2N(CCc2ccccc2)S(=O)(=O)c2ccc3oc(C(=O)O)c(C)c3c2)CC1 [Example F27-S91, 3-methyl-5-(N-(2-(4-acetylpiperazin-1-yl)phenyl)-N-phenethylsulfamoyl)benzofuran-2-carboxylic acid] | – | – | – | 50 to 100 | 196 to 197 °C | –
Cc1c(C(=O)O)oc2ccc(S(=O)(=O)N(CCc3ccccc3)c3ccccc3N3CCN(C(=O)N(C)C)CC3)cc12 [Example F27-S92, 3-methyl-5-(N-(2-(4-(dimethylcarbamoyl)piperazin-1-yl)phenyl)-N-phenethylsulfamoyl)benzofuran-2-carboxylic acid] | – | – | – | 10 to 50 | > 380 °C (dec.) | –
Cc1c(C(=O)O)oc2ccc(S(=O)(=O)N(CCc3ccccc3)c3ccccc3N3CCN(S(C)(=O)=O)CC3)cc12 [Example F27-S93, 3-methyl-5-(N-(2-(4-(methylsulfonyl)piperazin-1-yl)phenyl)-N-phenethylsulfamoyl)benzofuran-2-carboxylic acid] | – | – | – | 10 to 50 | 144 to 145 °C | –
Cc1c(C(=O)O)oc2ccc(S(=O)(=O)N(CCc3ccccc3)c3ccccc3N3CCN(C(=O)CC(C)(C)C)CC3)cc12 [Example F27-S94] | – | – | – | 0.1 to 10 | 191 to 192 °C | –
Cc1c(C(=O)O)oc2ccc(S(=O)(=O)N(CCc3ccccc3)c3ccccc3N3CCN(Cc4ccccc4)CC3)cc12 [Example F27-S95] | – | – | – | 10 to 50 | 161 to 162 °C | –
Cc1c(C(=O)O)oc2ccc(S(=O)(=O)N(CCc3ccccc3)Cc3ccccc3N3CCNCC3)cc12 [Example F27-S97, 3-methyl-5-(N-(2-(piperazin-1-yl)benzyl)-N-phenethylsulfamoyl)benzofuran-2-carboxylic acid] | – | – | – | 50 to 100 | 223 to 224 °C | –
Cc1c(C(=O)O)oc2ccc(S(=O)(=O)N(CCc3ccccc3)Cc3ccccc3N3CC[N+](C)(C)CC3)cc12 [Example F27-S99, 4-(2-(((2-carboxy-3-methyl-N-phenethylbenzofuran)-5-sulfonamido)methyl)phenyl)-1,1-dimethylpiperazin-1-ium] | – | – | – | 50 to 100 | 143 to 144 °C | –
CC(=O)N1CCN(c2ccccc2CN(CCc2ccccc2)S(=O)(=O)c2ccc3oc(C(=O)O)c(C)c3c2)CC1 [Example F27-S100, 3-methyl-5-(N-(2-(4-acetylpiperazin-1-yl)benzyl)-N-phenethylsulfamoyl)benzofuran-2-carboxylic acid] | – | – | – | 10 to 50 | 236 to 237 °C | –
Cc1c(C(=O)O)oc2ccc(S(=O)(=O)N(CCc3ccccc3)Cc3ccccc3N3CCN(C(=O)N(C)C)CC3)cc12 [Example F27-S101, 3-methyl-5-(N-(2-(4-(dimethylcarbamoyl)piperazin-1-yl)benzyl)-N-phenethylsulfamoyl)benzofuran-2-carboxylic acid] | – | – | > 160 | 0.1 to 10 | 118 to 119 °C | > 160
Cc1c(C(=O)O)oc2ccc(S(=O)(=O)N(CCc3ccccc3)Cc3ccccc3N3CCN(S(C)(=O)=O)CC3)cc12 [Example F27-S102, 3-methyl-5-(N-(2-(4-(methylsulfonyl)piperazin-1-yl)benzyl)-N-phenethylsulfamoyl)benzofuran-2-carboxylic acid] | – | – | – | 50 to 100 | 150 to 151 °C | –
Cc1c(C(=O)O)oc2ccc(S(=O)(=O)N(CCc3ccccc3)Cc3ccccc3N3CCN(C(=O)CC(C)(C)C)CC3)cc12 [Example F27-S103] | – | – | – | 10 to 50 | 190 to 191 °C | –
Cc1c(C(=O)O)oc2ccc(S(=O)(=O)N(CCc3ccccc3)Cc3ccccc3N3CCN(Cc4ccccc4)CC3)cc12 [Example F27-S104, 3-methyl-5-(N-(2-(4-benzylpiperazin-1-yl)benzyl)-N-phenethylsulfamoyl)benzofuran-2-carboxylic acid] | – | – | – | 50 to 100 | 154 to 155 °C | –
Cc1c(C(=O)O)oc2ccc(S(=O)(=O)N(CCc3ccccc3)Cc3ccccc3N3CCN(C(=O)c4ccccc4)CC3)cc12 [Example F27-S105, 3-methyl-5-(N-(2-(4-benzoylpiperazin-1-yl)benzyl)-N-phenethylsulfamoyl)benzofuran-2-carboxylic acid] | – | – | > 160 | 0.1 to 10 | 163 to 164 °C | > 160
Cc1ccc(C)c(OCCCC(C)(C)C(=O)NCC(=O)c2ccc(O)cc2)c1 [SIPI-7623, 5-(2,5-dimethylphenoxy)-N-(2-(4-hydroxyphenyl)-2-oxoethyl)-2,2-dimethylpentanamide] | significantly reduce | significantly reduce | – | – | – | –
C/C=C1\C(=O)C[C@H]2[C@@H]3CCC4=CC(=O)CC[C@]4(C)[C@H]3CC[C@]12C [Z-GS] | significantly reduce | significantly reduce | – | – | – | –
